Laboratory results as given in patent US20080249144A1, “Preventive or Therapeutic Agent for Chronic Inflammatory Lung Disease” (KAKEN PHARMACEUITICAL CO., LTD., priority 2004, published 2008).

Assays:
[1] = system: vanadium pentoxide-induced bronchitis model; test: Vanadium pentoxide-induced bronchitis model in mice; assay type: in vivo; settings: 7 days after vanadium pentoxide; compared with control
Experimental: Seven-week old C57BL strain male mice were used. The mouse was anaesthetized with isoflurane. Vanadium pentoxide (20 μg) was administered once to the lung through a cannula inserted into the trachea through the pharyngolarynx to induce pathology. To a non-vanadium pentoxide administration group (normal group), saline was administered, instead. KP-496 was administered by inhalation twice a day in the period from the vanadium pentoxide administration date to the day before autopsy, in the same manner as in Example 2. Furthermore, the normal group and the control group were allowed to spontaneously inhale saline in the same manner. A medicament for use in comparison, prednisolone, was orally administered at a dose of 5 mg/kg twice a day in the period from the vanadium pentoxide administration date to the day before autopsy. Note that the normal group consisted of 6 animals and the other group consisted of 10 animals. Each of the mice was anaesthetized with pentobarbital 7 days after vanadium pentoxide administration and killed by bloodletting from the abdominal aorta. The lung was excised out and fixed in 10 vol % neutral buffered formalin solution. […] The obtained value was divided by the circumferential length of the bronchial lumen (obtained in mucosal basal membrane) and the quotient was expressed as a mucus producing region area per millimeter of the bronchus. […]

[2] = KP-496 concentration in the mouse lung tissue after inhalation; assay type: in vivo, mice; settings: after 30 min inhalation of nebulized KP-496 solution (0.5 w/v %)
Experimental: Seven-week old C57BL-strain male mice were was used. The mouse was allowed to inhale nebulized KP-496 for 30 min. through a nasal cavity to the lung tissue in the same manner as in Example 2. After completion of the inhalation, the mouse was killed by exsanguination under anaesthesia with pentobarbital. Immediately after that, the lung was excised out, weighed and freezed at −80° C. to store. A 4-fold volume of phosphate buffer was added to the lung homogenized and measured with LC-MS. The number of animals was five.

[3] = system: murine model of BLM-induced pulmonary fibrosis; test: BLM-induced pulmonary fibrosis model in mice; assay type: in vivo
Experimental: Bleomycin chloride (BLM) was dissolved in a physiological saline solution (saline). BLM was intravenously administered to 10-week-old ICR-strain male mice once in a dose of […] to induce disease. To a non-BLM administration group, saline was administered, instead. KP-496 was administered by inhalation twice a day from the initiation date of BLM administration to the day before autopsy. To describe in brief, a mouse housed in a polyethylene container under unrestrained conditions was allowed to spontaneously inhale a mist state of KP-496 solution (0.5 w/v %) nebulized by a nebulizer for 30 minutes. Furthermore, the vehicle (saline) for KP-496 was administered by inhalation to a control group, in the same manner. A group consisted of 8 animals.
On the 7th day or 21st day after administration of BLM, the mouse was killed by exsanguinations under anaesthesia with pentobarbital. Immediately after that, BAL of the right lung alone was done. BAL fluid (BALF) was centrifuged and the supernatant was removed, and thereafter, precipitated cells were resuspended in saline. The total number of cells was determined by use of a particle counter analyzer. Furthermore, using the remaining cell suspension solution, a smear sample of cells was prepared and stained with Giemsa. The cells were classified according to the cell type. Based on the percentages of cell types, the numbers of classified cells were calculated.
After BAL, the right lung was lyophilized. The content of hydroxyproline in the lung tissue was measured in accordance with the KISO method using chloramine T (Inayama et al., Keio J. Med., 27: 43 (1978)).
After BAL, the left lung was fixed in 10 vol % neutral-buffered formalin solution. Thereafter, a paraffin section was prepared in a general way, stained with H. E. and azan and subjected to histopathologic examination of the lung. When an abnormality was observed, the degree of the abnormality was arbitrarily evaluated under blind conditions and scored based on the following 4 stages:
0: No abnormality is observed
1: Pathologic lesion is locally observed in a limited area of a sample
2: Pathologic lesion is observed about a ⅓ region of a sample
3: Pathologic lesion is observed about a ½ region of a sample
4: Pathologic lesion is observed in substantially the entire region of a sample.
The average value and standard deviation of each group were obtained. Comparison between two groups, that is, between BLM administration/vehicle group and BLM administration/KP-496 group or a saline administration/vehicle group, was performed with the Student's t-test. Furthermore, histopathologic lesion scores were evaluated by the Mann-Whitney test. The significance level (P) was set at […].

[4] = 7th day after BLM, inhalation twice a day
[5] = 21st day after BLM, inhalation twice a day

In the case of `CC(C)c1csc(COc2cccc(CN(CCCCNS(=O)(=O)c3ccc(Cl)cc3)S(=O)(=O)c3ccccc3C(=O)O)c2)n1` [KP-496, 2-{N-[4-(4-chlorobenzenesulfonylamino)butyl]-N-{3-[(4-isopropyl-2-thiazolyl)methoxy]benzyl}}sulfamoylbenzoic acid], the “increase of PAS positive area (mucus producing region of intrapulmonary bronchial epithelium)” value [1] is reported as “significantly suppressed”, the “content of KP-496 in murine lung” value [2] is reported as 418 ± 114 ng and the “hydroxyproline content of the right lung lobe” value ([3]; 7th day after BLM) is reported as 129.9 ± 11.35 µg. For the same molecule, the “total number of cells in BALF” value ([3]; 7th day after BLM, KP-496 0.5 w/v % inhalation twice a day) was 0.6±0.29 ×10^5 cells, the “number of alveolar macrophages in BALF” value [3, 4] was 0.6±0.27 ×10^5 cells and the “number of eosinophils in BALF” value [3, 4] was 0.3±0.68 ×10^3 cells. For the same molecule, the “number of lymphocytes in BALF” value [3, 4] was 0.1±0.09 ×10^4 cells, the “number of neutrophils in BALF” value [3, 4] was 0.2±0.11 ×10^4 cells and the “histopathologic score of acute inflammation, left lung” value ([3]; 7th day after BLM, score 0-4) was 1.0±0.76. The “hydroxyproline content of the right lung lobe” value ([3]; 21st day after BLM) was 138.0 ± 9.93 µg, the “number of alveolar macrophages in BALF” value [3, 5] was 0.7±0.23 ×10^5 cells and the “number of eosinophils in BALF” value [3, 5] was 0.1±0.21 ×10^3 cells. For the same molecule, the “number of lymphocytes in BALF” value [3, 5] was 0.3±0.10 ×10^4 cells, the “number of neutrophils in BALF” value [3, 5] was 0.02±0.02 ×10^4 cells and the “total number of cells in BALF” value [3, 5] was 0.8±0.24 ×10^5 cells. The “histopathologic score of chronic inflammation, left lung” value ([3]; 21st day after BLM, score 0-4) was 1.0±0.76 and the “histopathologic score of fibrogenesis, left lung” value ([3]; 21st day after BLM, score 0-4) was 0.6±0.52.
